Test results from patent US12692264B2, “Pyrimidine or pyridine derivative, preparation method therefor, and application thereof in pharmacy” (ABBISKO THERAPEUTICS CO., LTD., priority 2021, dated 2026).

Experiments:
Assay type in all cases: cell-based
A431 (EGFR-WT) = experiment: Cell proliferation study (CellTiter-Glo, 72 hrs), A431; settings: Homo sapiens, A-431, A431 cells, CTG, * = average of multiple measurements
Procedure: (§1) (I) Reagents and Materials
(§2) • Fetal bovine serum FBS (GBICO, Cat #10099-141); • CellTiter-Glo® luminescent cell viability assay kit (Promega, Cat #G7572); • Black transparent flat-bottom 96-well plate (Corning®, Cat #3603). (II) Instruments • SpectraMax multi-label microplate reader MD, 2104-0010A; • Carbon dioxide incubator, Thermo Scientific 3100 series; • Biological safety cabinet, Thermo Scientific, 1300 series model A2; • Inverted microscope, Olympus, CKX41SF; • Siemens refrigerator KK25E76T1. (III) Cell Lines and Culture Conditions
(§3) (IV) Experimental Procedures 1. Cell Culture and Inoculation: • (1) Cells in the logarithmic growth phase were harvested and counted using a […]. The cell viability was determined by the trypan blue dye exclusion method to ensure cell viability above 90%. • (2) The cell concentration was adjusted to reach a desired final density; 90 μL of cell suspension was added to a 96-well plate. • (3) The cells were incubated overnight in the 96-well plate at 37° C., 5% CO2 and with 95% humidity. 2. T0 Benchmark Data: • (1) 10 μL of PBS was added to each well of the TO plate containing the cells. • (2) The CTG reagent was thawed and the cell plate was equilibrated to room temperature for 30 min. • (3) An equal volume of CTG solution was added to each well. • (4) The cells were lysed by shaking on an orbital shaker for 5 min. • (5) The cell plate was left to stand at room temperature for 20 min to stabilize the fluorescence signal. • (6) The fluorescence signal values of TO were read. 3. Dilution and Addition of Compounds • (1) According to the compound information table, a corresponding volume of DMSO was added to the corresponding compound powder to prepare a 10 mM stock solution. • (2) A 1000-fold, 3.16-fold-diluted compound solution was prepared. • (3) The 1000× diluted compound solution was diluted 100-fold with PBS to prepare a 10-fold compound solution with a maximum concentration of 10 μM, including 9 concentrations, with 3.16-fold dilution, and 10 μL of the medicament solution was added to each well of the 96-well plate to seed the cells. Triplicate wells were set for each compound concentration, with a final concentration of DMSO being 0.1%. • (4) The cells were placed in the 96-well plate containing the medicament at 37° C., 5% CO2 and with 95% humidity, and cultured for 72 hrs before CTG analysis. 4. Fluorescence Signal Reading • (1) The CTG reagent was thawed and the cell plate was equilibrated to room temperature for 30 min. • (2) An equal volume of CTG solution was added to each well. • (3) The cells were lysed by shaking on an orbital shaker for 5 min. • (4) The cell plate was left to stand at room temperature for 20 min to stabilize the fluorescence signal. • (5) The fluorescence values were read. 5. Data Processing
(§4) Data were analyzed using GraphPad Prism 7.0 software and fitted data were regressed using non-linear S-curves to obtain dose-response curves from which IC50 values (in nM) were calculated.

[1] = molecular target: Ba/F3 EGFR-V769_D770insASV (Homo sapiens, UniProt P00533, DUP767-769, cells depend on it); experiment: Cell proliferation study (CellTiter-Glo, 72 hrs), Ba/F3 EGFR-V769_D770insASV; settings: CTG, * = average of multiple measurements, read-out: Ba/F3 EGFR-V769_D770insASV IC50
Procedure: as §1, §2, §3, §4

[2] = molecular target: Ba/F3 EGFR-D770-N771ins_SVD (Homo sapiens, UniProt P00533, DUP768-770, cells depend on it); experiment: Cell proliferation study (CellTiter-Glo, 72 hrs), Ba/F3 EGFR-D770-N771ins_SVD; settings: CTG, * = average of multiple measurements, read-out: Ba/F3 EGFR-D770-N771ins_SVD IC50
Procedure: as §1, §2, §3, §4

Chain of Ba/F3 EGFR-D770-N771ins_SVD (P00533 with tags, fused parts or gaps DUP768-770): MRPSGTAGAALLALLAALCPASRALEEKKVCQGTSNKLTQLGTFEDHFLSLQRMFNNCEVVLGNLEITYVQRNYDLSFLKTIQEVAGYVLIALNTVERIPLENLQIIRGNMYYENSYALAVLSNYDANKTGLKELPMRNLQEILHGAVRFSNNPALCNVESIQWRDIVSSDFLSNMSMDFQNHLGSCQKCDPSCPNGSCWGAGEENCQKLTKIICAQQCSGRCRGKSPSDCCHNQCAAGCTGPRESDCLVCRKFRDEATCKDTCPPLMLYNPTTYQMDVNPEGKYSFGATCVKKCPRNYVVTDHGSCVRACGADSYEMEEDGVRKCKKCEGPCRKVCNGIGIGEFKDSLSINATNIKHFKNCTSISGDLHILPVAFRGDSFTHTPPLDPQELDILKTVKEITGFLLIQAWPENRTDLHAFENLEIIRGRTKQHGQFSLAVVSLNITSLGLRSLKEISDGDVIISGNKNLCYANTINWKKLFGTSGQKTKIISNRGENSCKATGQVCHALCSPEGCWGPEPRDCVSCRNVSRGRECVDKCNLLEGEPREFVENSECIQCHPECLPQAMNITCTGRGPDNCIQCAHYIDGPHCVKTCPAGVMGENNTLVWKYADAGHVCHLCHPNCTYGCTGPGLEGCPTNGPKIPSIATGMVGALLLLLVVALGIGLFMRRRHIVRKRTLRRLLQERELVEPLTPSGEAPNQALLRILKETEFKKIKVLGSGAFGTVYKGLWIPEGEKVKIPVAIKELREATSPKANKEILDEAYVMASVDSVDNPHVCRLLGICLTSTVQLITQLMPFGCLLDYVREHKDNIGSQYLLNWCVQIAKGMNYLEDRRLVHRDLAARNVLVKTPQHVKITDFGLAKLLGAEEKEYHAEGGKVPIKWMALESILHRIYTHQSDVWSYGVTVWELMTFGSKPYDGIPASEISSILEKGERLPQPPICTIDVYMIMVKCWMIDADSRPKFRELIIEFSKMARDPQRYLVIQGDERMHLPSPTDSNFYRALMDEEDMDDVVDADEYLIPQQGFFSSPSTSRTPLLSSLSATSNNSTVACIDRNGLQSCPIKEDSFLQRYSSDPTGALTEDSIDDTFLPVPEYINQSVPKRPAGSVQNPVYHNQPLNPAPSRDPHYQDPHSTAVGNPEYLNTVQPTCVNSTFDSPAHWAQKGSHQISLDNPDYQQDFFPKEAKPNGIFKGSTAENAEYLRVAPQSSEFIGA
Chain of Ba/F3 EGFR-V769_D770insASV (P00533 with tags, fused parts or gaps DUP767-769): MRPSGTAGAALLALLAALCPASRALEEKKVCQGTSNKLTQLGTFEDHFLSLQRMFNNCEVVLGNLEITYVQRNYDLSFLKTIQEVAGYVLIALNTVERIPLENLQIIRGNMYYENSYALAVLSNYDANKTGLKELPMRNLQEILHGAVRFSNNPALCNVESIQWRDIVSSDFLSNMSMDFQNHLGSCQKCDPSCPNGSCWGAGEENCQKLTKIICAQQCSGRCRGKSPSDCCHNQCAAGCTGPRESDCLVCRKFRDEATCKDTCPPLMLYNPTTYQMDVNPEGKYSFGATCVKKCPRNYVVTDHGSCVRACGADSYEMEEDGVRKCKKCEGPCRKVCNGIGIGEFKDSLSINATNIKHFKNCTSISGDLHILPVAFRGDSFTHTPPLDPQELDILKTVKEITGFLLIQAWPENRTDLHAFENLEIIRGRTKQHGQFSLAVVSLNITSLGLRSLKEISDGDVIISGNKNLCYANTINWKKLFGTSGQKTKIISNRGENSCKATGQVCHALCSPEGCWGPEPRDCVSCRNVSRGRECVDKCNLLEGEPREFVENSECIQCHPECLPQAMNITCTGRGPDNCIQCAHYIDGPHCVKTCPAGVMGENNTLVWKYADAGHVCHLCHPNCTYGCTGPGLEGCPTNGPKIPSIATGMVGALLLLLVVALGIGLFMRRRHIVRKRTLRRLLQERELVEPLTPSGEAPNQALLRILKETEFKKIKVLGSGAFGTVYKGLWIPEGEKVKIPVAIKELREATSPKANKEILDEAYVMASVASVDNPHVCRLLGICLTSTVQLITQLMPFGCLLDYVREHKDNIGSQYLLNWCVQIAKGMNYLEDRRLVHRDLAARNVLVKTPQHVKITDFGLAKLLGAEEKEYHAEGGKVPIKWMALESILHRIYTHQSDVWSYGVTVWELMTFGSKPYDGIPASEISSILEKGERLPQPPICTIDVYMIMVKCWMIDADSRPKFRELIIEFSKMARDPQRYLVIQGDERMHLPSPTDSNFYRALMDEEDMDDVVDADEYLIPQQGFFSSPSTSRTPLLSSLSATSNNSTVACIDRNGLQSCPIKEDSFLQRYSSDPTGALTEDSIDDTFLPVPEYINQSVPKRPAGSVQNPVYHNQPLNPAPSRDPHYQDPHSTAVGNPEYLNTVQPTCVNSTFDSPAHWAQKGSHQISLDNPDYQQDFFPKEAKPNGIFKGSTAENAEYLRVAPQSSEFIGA

SMILES	IC50 (A431 (EGFR-WT))	GI50 [1]	GI50 [2]
C=CC(=O)Nc1cc(Nc2ncc(C(=O)OC(C)C)c(N3CC(C)(C)c4nc(C#CC)ccc43)n2)c(OC)cc1N1CC(N(C)C)C1 [Example 76, isopropyl 2-((5-acrylamido-4-(3-(dimethylami-no)azetidin-1-yl)-2-methoxyphenyl)ami-no)-4-(3,3-dimethyl-5-(prop-1-yn-1-yl)-2,3-dihydro-1H-pyrrolo[3,2-b]pyridin-1-yl)pyrimidine-5-carboxylate]	1.26 µM	0.0939 µM	0.0309 µM
C=CC(=O)Nc1cc(Nc2ncc(C(=O)OC(C)C)c(N3CC(C)(C)c4nc(Cl)ccc43)n2)c(OC)cc1N(C)CCN(C)C [Example 57, isopropyl 2-((5-acrylamido-4-((2-(dimethylami-no)ethyl)(methyl)amino)-2-methoxy-phenyl)amino)-4-(5-chloro-3,3-dimethyl-2,3-dihydro-1H-pyrrolo[3,2-b]pyridin-1-yl)pyrimidine-5-carboxylate]	0.988 µM	0.0624 µM	0.0233 µM
C=CC(=O)Nc1cc(Nc2ncc(C(=O)OC(C)C)c(N3CC(C)(C)c4nc(C#CC)ccc43)n2)c(OC)cc1N(C)CCN(CC)CC [Example 89, isopropyl 2-((5-acrylamido-4-((2-(diethyl-amino)ethyl)(methyl)amino)-2-methoxyphenyl)amino)-4-(3,3-dimethyl-5-(prop-1-yn-1-yl)-2,3-dihydro-1H-pyrrolo[3,2-b]pyridin-1-yl)pyrimidine-5-carboxylate]	0.177 µM	0.242 µM	0.0131 µM
[2H]C([2H])([2H])C1(C([2H])([2H])[2H])CN(c2nc(Nc3cc(NC(=O)C=C)c(N(C)CCN(C)C)cc3OC)ncc2C(=O)OC(C)C)c2ccc(C)nc21 [Example 73, isopropyl 2-((5-acrylamido-4-((2-(dimethylami-no)ethyl)(methyl)amino)-2-methoxy-phenyl)amino)-4-(5-methyl-3,3-bis(methyl-d3)-2,3-dihydro-1H-pyrrolo[3,2-b]pyridin-1-yl)pyrimidine-5-carboxylate]	0.09 µM	0.0348 µM	0.0123 µM
C=CC(=O)Nc1cc(Nc2ncc(C(=O)OC(C)C)c(N3CC(C)(C)c4nc(C)ccc43)n2)c(OC)cc1N1C[C@H]2CN(C)C[C@H]2C1 [Example 58, isopropyl 2-((5-acrylamido-2-methoxy-4-((3aR,6aS)-5-methylhexahydro-pyrrolo[3,4-c]pyrrol-2(1H)-yl)phenyl)amino)-4-(3,3,5-trimethyl-2,3-dihydro-1H-pyrrolo[3,2-b]pyridin-1-yl)pyrimidine-5-carboxylate]	1.28 µM	0.0381 µM	0.0287 µM
C=CC(=O)Nc1cc(Nc2ncc(C(=O)OC(C)C)c(N3CC4(CC4)c4nc(C)ccc43)n2)c(OC)cc1N(C)CCN(C)C [Example 22, isopropyl 2-((5-acrylamido-4-((2-(dimethylami-no)ethyl)(methyl)amino)-2-methoxy-phenyl)amino)-4-(5′-methylspiro(cyclo-propane-1,3′-pyrrolo[3,2-b]pyridin)-1′(2′H)-yl)pyrimidine-5-carboxylate]	0.127 µM	0.0488 µM	0.0206 µM
C=CC(=O)Nc1cc(Nc2ncc(C(=O)OC(C)C)c(N3CC(C)(C)c4ncccc43)n2)c(OC)cc1N(C)CCN(C)C [Example 2, isopropyl 2-((5-acrylamido-4-((2-(dimethylami-no)ethyl)(methyl)amino)-2-methoxy-phenyl)amino)-4-(3,3-dimethyl-2,3-dihydro-1H-pyrrolo[3,2-b]pyridin-1-yl)pyrimidine-5-carboxylate]	0.479 µM	0.035 µM	0.0268 µM
C=CC(=O)Nc1cc(Nc2ncc(C(=O)OC(C)C)c(N3CC(C)(C)c4nc(C)ccc43)n2)c(OC)cc1N(C)CCN1CCC1 [Example 67, isopropyl 2-((5-acrylamido-4-((2-(azetidin-1-yl)ethyl)(methyl)amino)-2-methoxy-phenyl)amino)-4-(3,3,5-trimethyl-2,3-dihydro-1H-pyrrolo[3,2-b]pyridin-1-yl)pyrimidine-5-carboxylate]	0.515 µM	0.0371 µM	0.0239 µM
[2H]C([2H])([2H])N(CCN(C([2H])([2H])[2H])C([2H])([2H])[2H])c1cc(OC)c(Nc2ncc(C(=O)OC(C)C)c(N3CC4(CC4)c4nc(C)ccc43)n2)cc1NC(=O)C=C [Example 69, isopropyl 2-((5-acrylamido-4-((2-(bis(methyl-d3)amino)ethyl)(methyl-d3)amino)-2-methoxyphenyl)amino)-4-(5′-methylspiro(cyclopropane-1,3′-pyrrolo[3,2-b]pyridin)-1′(2′H)-yl)pyrimidine-5-carboxylate]		0.0352 µM	0.0269 µM

The next molecules have a lower GI50 [1] than those just listed; values first:

IC50 (A431 (EGFR-WT))	GI50 [1]	GI50 [2]	SMILES
0.516 µM	0.0304 µM	0.0158 µM	C=CC(=O)Nc1cc(Nc2ncc(C(=O)OC(C)C)c(N3CC4(CCC4)c4nc(C)ccc43)n2)c(OC)cc1N(C)CCN(C)C [Example 5, isopropyl 2-((5-acrylamido-4-((2-(dimethylami-no)ethyl)(methyl)amino)-2-methoxy-phenyl)amino)-4-(5′-methylspiro(cyclo-butane-1,3′-pyrrolo[3,2-b]pyridin)-1′(2′H)-yl)pyrimidine-5-carboxylate]
0.27 µM	0.0335 µM	0.0205 µM	C=CC(=O)Nc1cc(Nc2ncc(C(=O)OC(C)C)c(N3CC(C)(C)c4nc(C)ccc43)n2)c(OC)nc1N(C)C[C@@H]1CCCN1C [Example 46, isopropyl (S)-2-((5-acrylamido-2-methoxy-6-(methyl((1-methylpyrrolidin-2-yl)methyl)amino)pyridin-3-yl)amino)-4-(3,3,5-trimethyl-2,3-dihydro-1H-pyrrolo[3,2-b]pyridin-1-yl)pyrimidine-5-carboxylate]
0.371 µM	0.0331 µM	0.0232 µM	C=CC(=O)Nc1cc(Nc2ncc(C(=O)OC(C)C)c(N3CC(C)(C)c4ncccc43)n2)c(OC(F)F)cc1N(C)CCN(C)C [Example 3, isopropyl 2-((5-acrylamido-2-(difluoromethoxy)-4-((2-(dimethylamino)ethyl)(methyl)ami-no)phenyl)amino)-4-(3,3-dimethyl-2,3-dibydro-1H-pyrrolo[3,2-b]pyridin-1-yl)pyrimidine-5-carboxylate]
0.076 µM	0.0129 µM	0.0112 µM	[2H]C1([2H])N(c2nc(Nc3cc(NC(=O)C=C)c(N4C[C@@H](F)C[C@@H]4CN(C)C)cc3OC)ncc2C(=O)OC(C)C)c2ccc(C)nc2C1(C)C [Example 82, isopropyl 2-((5-acrylamido-4-((2R,4S)-2-((di-methylamino)methyl)-4-fluoro-pyrrolidin-1-yl)-2-methoxy-phenyl)amino)-4-(3,3,5-trimethyl-2,3-dihydro-1H-pyrrolo[3,2-b]pyridin-1-yl-2,2-d2)pyrimidine-5-carboxylate]
0.057 µM	0.0136 µM	0.0109 µM	C=CC(=O)Nc1cc(Nc2ncc(C(=O)OC(C)C)c(N3CC(C)(C)c4nc(C)ccc43)n2)c(OC)cc1N1CCC[C@@H]1CN(C)C [Example 83, isopropyl (R)-2-((5-acrylamido-4-(2-((dimethyl-amino)methyl)pyrrolidin-1-yl)-2-meth-oxyphenyl)amino)-4-(3,3,5-trimethyl-2,3-dihydro-1H-pyrrolo[3,2-b]pyridin-1-yl)pyrimidine-5-carboxylate]
0.0397 µM	0.0123 µM	0.0088 µM	C=CC(=O)Nc1cc(Nc2ncc(C(=O)OC(C)C)c(N3CC4(CC4)c4nc(C)ccc43)n2)c(OC)cc1N1C[C@@H](F)C[C@@H]1CN(C)C [Example 64, isopropyl 2-((5-acrylamido-4-((2R,4S)-2-((di-methylamino)methyl)-4-fluoro-pyrrolidin-1-yl)-2-methoxy-phenyl)amino)-4-(5′-methyl-spiro(cyclopropane-1,3′-pyrrolo[3,2-b]pyridin)-1′(2′H)-yl)pyrimidine-5-carboxylate]
